Values after ≈ are worked out from the molar mass of the structure shown. Read-outs that look alike come from different tables or passages of the source.
Key:
E. faecalis = assay: MIC against E. faecalis; assay type: cell-based; details: Table 6c; for MIC: Enterococcus faecalis
E. coli [1] = assay: MIC against E. coli; details: for MIC: Escherichia coli, read-out: MIC, E. coli; for MIC, E. coli: Table 6c
Procedure: (§2) Minimum inhibitory concentrations (MICs) of the antimicrobials and their pro-drugs were assessed according to Jennifer M. Andrews, Journal of Antimicrobial Chemotherapy 48, suppl.

S. aureus = assay: MIC against S. aureus; details: for MIC: Staphylococcus aureus, read-out: MIC, S. aureus; for MIC, S. aureus: Table 6c
Procedure: as §2

[2] = In vitro penetration across isolated human skin in modified Franz cells; details: pH 7.4
Procedure: Penetration rates of HPPs and their parent drugs through human skin were measured in vitro by modified Franz cells. A Franz cell had two chambers, the top sample chamber and the bottom receiving chamber. The human skin tissue (360-400 μm thick) that separated the top and the receiving chambers was isolated from the anterior or posterior thigh areas.
A test compound (2 mL, 10% in 0.2 M phosphate buffer, pH 7.4) was added to the sample chamber of a Franz cell. The receiving chamber contained 10 ml of 0.2 M phosphate buffer which was stirred at 600 rpm. The amount of the tested compound penetrating the skin was determined by high-performance liquid chromatography (HPLC) method.

[3] = system: methicillin-resistant Staphylococcus aureus (MRSA); assay: MIC against MRSA; assay type: cell-based; details: Table 6a
[4] = Conversion of HPPs to parent drugs in human plasma (half life); assay type: in vitro ADME
Procedure: HPPs of antimicrobials or antimicrobial-related compounds converted to the parent antimicrobials or antimicrobial-related compounds quickly in good yield in human plasma.
A HPP of antimicrobial or antimicrobial-related compound (10 mg) was dissolved in 0.1 ml of 0.2M pH 7.4 phosphate buffer. 1 ml of human plasma, preheated to 37° C., was added into the mixture. The mixture was kept in a water bath at 37° C., and at every 2 min intervals 0.2 ml of samples were withdrawn and added to 0.4 ml of methanol to precipitate the plasma protein.

Aspergillus nidulans = assay: Antifungal MIC in vitro; assay type: cell-based
[5] = system: Trichophyton mentagrophytes; assay: Antifungal MIC in vitro; assay type: cell-based
Microsporum canis = assay: Antifungal MIC in vitro; assay type: cell-based
Candida albicans = assay: Antifungal MIC in vitro; assay type: cell-based
Aspergillus niger = assay: Antifungal MIC in vitro; assay type: cell-based
Aspergillus tereus = assay: Antifungal MIC in vitro; assay type: cell-based
[6] = system: Penicillium carylophilium; assay: Antifungal MIC in vitro; assay type: cell-based
Fusarium oxisporum = assay: Antifungal MIC in vitro; assay type: cell-based
Fusarium aquaductum = assay: Antifungal MIC in vitro; assay type: cell-based
Aspergillus giganteus = assay: Antifungal MIC in vitro; assay type: cell-based
[7] = Clinical cure of cow mastitis, topical treatment; assay type: in vivo, lactating dairy cows; details: cows, 500 mg in 10 ml pH 7.4 phosphate buffer sprayed on skin of udder twice per day
Procedure: (§1) 90 lactating dairy cows were recruited. Bacteriological cure was considered to have been achieved if the samples taken from the affected quarter on day 17 and day 22 were free of the bacterial species isolated in the pretreatment sample. Clinical cure was defined as the disappearance of clinical signs of disease which were observed on day 1 before treatment, in other words by the return to normal feed intake, rectal temperature<39.0° C., good general condition, absence of udder edema, normal milk appearance, and normal milk yield.

[8] = system: Coagulase-negative staphylococci; assay: Bacteriological cure of cow mastitis, topical treatment; assay type: in vivo; details: cows, day 22, topical 500 mg twice per day
Procedure: as §1

E. coli [9] = assay: as above; assay type: in vivo; details: cows, day 22, topical 500 mg twice per day
Procedure: as §1

Enterobacteriaceae = assay: as above; assay type: in vivo; details: cows, day 22, topical 500 mg twice per day
Procedure: as §1

Staphylococcus aureus = assay: as above; assay type: in vivo; details: cows, day 22, topical 500 mg twice per day
Procedure: as §1

Streptococcus uberis = assay: as above; assay type: in vivo; details: cows, day 22, topical 500 mg twice per day
Procedure: as §1

K. pneumonlae = assay: MIC against K. pneumonlae; assay type: cell-based; details: Table 6b; combinations antibiotic/inhibitor
E. cloacae = assay: MIC against E. cloacae; assay type: cell-based; details: Enterobacter cloacae; Table 6b; combinations antibiotic/inhibitor
B. fragilis = assay: MIC against B. fragilis; assay type: cell-based; details: Bacteroides fragilis; Table 6b; combinations antibiotic/inhibitor
[10] = Staphylococcus aureus, MRSA, read-out: MIC

## CCn1cc(C(=O)O)c(=O)c2ccc(C)nc21 [nalidixic acid, 1-ethyl-7-methyl-4-oxo-[1,8]naphthyridine-3-carboxylic acid]
E. faecalis
  MIC: 64 µg/mL (≈ 276 µM)
E. coli [1]
  MIC: 6 µg/mL (≈ 25.8 µM)
S. aureus
  MIC: 158 µg/mL (≈ 680 µM)

## Cc1noc(NS(=O)(=O)c2ccc(N)cc2)c1C [Sulfisoxazole]
E. faecalis
  MIC: 55 µg/mL (≈ 206 µM)
E. coli [1]
  MIC: 16 µg/mL (≈ 59.9 µM)
S. aureus
  MIC: 64 µg/mL (≈ 239 µM)

## CCCCOC(=O)c1cn(C2CC2)c2cc(N3CCNCC3)c(F)cc2c1=O.Cl [ciprofloxacin-BE, 1-cyclopropyl-6-fluoro-4-oxo-7-piperazin-1-yl-quinoline-3-carboxylic acid butyl ester•HCl salt]
[2]
  In vitro Penetration Rate (apparent flux), HPPs of sulfonamides, sulfones, quinolones: 0.29 ± 0.02 mg/cm^2/h
E. faecalis
  MIC, E. faecalis: 0.05 mg/L
E. coli [1]
  MIC, E. coli: 0.2 mg/L
S. aureus
  MIC, S. aureus: 5 mg/L

## CO/N=C(\C(=O)N[C@@H]1C(=O)N2C(C(=O)O)=CCS[C@H]12)c1csc(N)n1 [Ceftizoxime, reference compound]
[2]; human, 10 %
  In vitro Penetration Rate (apparent flux), Parent compounds: <0.010 mg/cm^2/h
[3]; [10]
  MIC: 2790 µg/mL (≈ 7270 µM)

## CCN(CC)CCOC(=O)C1=CCSC2C(NC(=O)C(=NOC)c3csc(NC(C)=O)n3)C(=O)N12.Cl (stereo not drawn) [ceftizoxime-DEE, 7-[[(2-acetylamino-4-thiazolyl)(methoxyimino)acetyl]amino]-8-oxo-5-thia-1-azabicyclo[4.2.0]oct-2-ene-2-carboxylic acid 2-diethylaminoethyl ester hydrochloride]
[2]; human, 10 %
  In vitro Penetration Rate (apparent flux), HPPs: 0.62 ± 0.05 mg/cm^2/h
[4]; human, plasma, pH 7.4
  half-life at 9.1 mg/mL: 11 min
[3]; [10]
  MIC: 0.5 µg/mL
Aspergillus nidulans; Aspergillus nidulans, read-out: Minimum inhibitory concentration, Aspergillus nidulans
  MIC: 4 µg/mL
[5]; Trichophyton mentagrophytes, read-out: Minimum inhibitory concentration, Trichophyton mentagrophytes
  MIC: 9 µg/mL
Microsporum canis; Microsporum canis, read-out: Minimum inhibitory concentration, Microsporum canis
  MIC: 2 µg/mL
Candida albicans; Candida albicans, read-out: Minimum inhibitory concentration, Candida albicans
  MIC: 8 µg/mL
Aspergillus niger; Aspergillus niger, read-out: Minimum inhibitory concentration, Aspergillus niger
  MIC: 4 µg/mL
Aspergillus tereus; Aspergillus, read-out: Minimum inhibitory concentration, Aspergillus tereus
  MIC: 4 µg/mL
[6]; Penicillium, read-out: Minimum inhibitory concentration, Penicillium carylophilium
  MIC: 3 µg/mL
Fusarium oxisporum; Fusarium, read-out: Minimum inhibitory concentration, Fusarium oxisporum
  MIC: 5 µg/mL
Fusarium aquaductum; Fusarium, read-out: Minimum inhibitory concentration, Fusarium aquaductum
  MIC: 3 µg/mL
Aspergillus giganteus; Aspergillus giganteus, read-out: Minimum inhibitory concentration, Aspergillus giganteus
  MIC: 5 µg/mL
[7]
  Clinical Cure Rate, Day 3: 53%
  Clinical Cure Rate, Day 8: 93%
  Clinical Cure Rate, Day 15: 99%
  Clinical Cure Rate, Day 22: 100%
[8]
  Bacteriological cure rate, Coagulase-negative staphylococci: 87.5%
  Bacteriological cure, No. cured, Coagulase-negative staphylococci: 7
E. coli [9]
  Bacteriological cure rate, E. coli: 87.5%
  Bacteriological cure, No. cured, E. coli: 7
Enterobacteriaceae
  Bacteriological cure rate, Enterobacteriaceae: 83.3%
  Bacteriological cure, No. cured, Enterobacteriaceae: 5
Staphylococcus aureus
  Bacteriological cure rate, Staphylococcus aureus: 83%
  Bacteriological cure, No. cured, Staphylococcus aureus: 5
Streptococcus uberis
  Bacteriological cure rate, Streptococcus uberis: 82%
  Bacteriological cure, No. cured, Streptococcus uberis: 9

## CCN(CC)CCOC(=O)C1N2C(=O)C(NC(=O)COc3ccccc3)C2SC1(C)C.Cl (stereo not drawn) [penicillin V-DEE, 6-phenoxyacetacetamidopenicillanic acid 2-diethylaminoethyl ester hydrochloride]
[2]
  In vitro Penetration Rate (apparent flux), HPPs: 0.72 ± 0.06 mg/cm^2/h
[4]; human, plasma
  Half life of HPPs in plasma: 8 ± 1 min
Aspergillus nidulans
  Minimum inhibitory concentration, Aspergillus nidulans: 3 mg/L
[5]
  Minimum inhibitory concentration, Trichophyton mentagrophytes: 12 mg/L
Microsporum canis
  Minimum inhibitory concentration, Microsporum canis: 2 mg/L
Candida albicans
  Minimum inhibitory concentration, Candida albicans: 7 mg/L
Aspergillus niger
  Minimum inhibitory concentration, Aspergillus niger: 3 mg/L
Aspergillus tereus
  Minimum inhibitory concentration, Aspergillus tereus: 2 mg/L
[6]
  Minimum inhibitory concentration, Penicillium carylophilium: 2 mg/L
Fusarium oxisporum
  Minimum inhibitory concentration, Fusarium oxisporum: 3 mg/L
Fusarium aquaductum
  Minimum inhibitory concentration, Fusarium aquaductum: 2 mg/L
Aspergillus giganteus
  Minimum inhibitory concentration, Aspergillus giganteus: 3 mg/L
[7]
  Clinical Cure Rate, Day 3: 50%
  Clinical Cure Rate, Day 8: 90%
  Clinical Cure Rate, Day 15: 93%
  Clinical Cure Rate, Day 22: 97%
[8]
  Bacteriological cure rate, Coagulase-negative staphylococci: 78%
  Bacteriological cure, No. cured, Coagulase-negative staphylococci: 7
E. coli [9]
  Bacteriological cure rate, E. coli: 87.5%
  Bacteriological cure, No. cured, E. coli: 7
Enterobacteriaceae
  Bacteriological cure rate, Enterobacteriaceae: 85.7%
  Bacteriological cure, No. cured, Enterobacteriaceae: 6
Staphylococcus aureus
  Bacteriological cure rate, Staphylococcus aureus: 67%
  Bacteriological cure, No. cured, Staphylococcus aureus: 4
Streptococcus uberis
  Bacteriological cure rate, Streptococcus uberis: 80%
  Bacteriological cure, No. cured, Streptococcus uberis: 8

## CC1(C)SC2C(NC(=O)COc3ccccc3)C(=O)N2C1C(=O)OCCN1CCCCC1.Cl (stereo not drawn) [penicillin V-PEE, 6-phenoxyacetacetamidopenicillanic acid 1-piperidineethyl ester hydrochloride]
[3]
  MIC: 1 µg/mL

## COc1cccc(OC)c1C(=O)N[C@@H]1C(=O)N2[C@@H]1SC(C)(C)[C@@H]2C(=O)O [Methicillin, reference compound]
[2]; human, 10 %
  In vitro Penetration Rate (apparent flux), Parent compounds: <0.001 mg/cm^2/h
[3]; [10]
  MIC: 2160 µg/mL (≈ 5670 µM)

## O=C(O)c1cn(C2CC2)c2cc(N3CCNCC3)c(F)cc2c1=O [Ciprofloxacin, 1-cyclopropyl-6-fluoro-4-oxo-7-piperazin-1-yl-quinoline-3-carboxylic acid]
E. faecalis
  MIC: 2 µg/mL (≈ 6.04 µM)
E. coli [1]
  MIC: 10 µg/mL (≈ 30.2 µM)
S. aureus
  MIC: 128 µg/mL (≈ 386 µM)

## CCN(CC)CCOC(=O)c1cn(CC)c2nc(C)ccc2c1=O.Cl [nalidixic acid-DEE, 1-ethyl-7-methyl-4-oxo-[1,8]naphthyridine-3-carboxylic acid N,N-diethylaminoethyl ester•HCl salt]
[2]
  In vitro Penetration Rate (apparent flux), HPPs of sulfonamides, sulfones, quinolones: 0.25 ± 0.04 mg/cm^2/h
E. faecalis
  MIC, E. faecalis: 1 mg/L
E. coli [1]
  MIC, E. coli: 0.2 mg/L
S. aureus
  MIC, S. aureus: 5 mg/L

## penicillin V [reference compound]
[3]
  MIC: 3524 µg/mL

## CO/N=C(\C(=O)N[C@@H]1C(=O)N2C(C(=O)O)=C(CSc3nc(=O)c(=O)[nH]n3C)CS[C@H]12)c1csc(N)n1 [Ceftriaxone]
K. pneumonlae
  MIC: 0.5 µg/mL
E. cloacae
  MIC: 1 µg/mL
B. fragilis
  MIC: 8 µg/mL

## COc1cccc(OC)c1C(=O)NC1C(=O)N2C1SC(C)(C)C2C(=O)OCC1CCCN1.Cl (stereo not drawn) [methicillin-PME, 6-(2,6-dimethoxybenzamido)penicillinic acid 2-pyrrolidinemethyl ester hydrochloride]
[3]
  MIC: 10 µg/mL

## CCN(CC)CCOC(=O)C1N2C(=O)C(NC(=O)c3c(OC)cccc3OC)C2SC1(C)C.Cl (stereo not drawn) [methicillin-DEE, 6-(2,6-dimethoxybenzamido)penicillinic acid 2-diethylaminoethyl ester hydrochloride]
[4]; human plasma, 37° C.
  Half life of HPPs in plasma: 10 ± 1 min
Aspergillus nidulans
  Minimum inhibitory concentration, Aspergillus nidulans: 8 mg/L
[5]
  Minimum inhibitory concentration, Trichophyton mentagrophytes: 22 mg/L
Microsporum canis
  Minimum inhibitory concentration, Microsporum canis: 8 mg/L
Candida albicans
  Minimum inhibitory concentration, Candida albicans: 16 mg/L
Aspergillus niger
  Minimum inhibitory concentration, Aspergillus niger: 9 mg/L
Aspergillus tereus
  Minimum inhibitory concentration, Aspergillus tereus: 12 mg/L
[6]
  Minimum inhibitory concentration, Penicillium carylophilium: 9 mg/L
Fusarium oxisporum
  Minimum inhibitory concentration, Fusarium oxisporum: 8 mg/L
Fusarium aquaductum
  Minimum inhibitory concentration, Fusarium aquaductum: 10 mg/L
Aspergillus giganteus
  Minimum inhibitory concentration, Aspergillus giganteus: 9 mg/L
[7]
  Clinical Cure Rate, Day 3: 43%
  Clinical Cure Rate, Day 8: 90%
  Clinical Cure Rate, Day 15: 97%
  Clinical Cure Rate, Day 22: 100%
[8]
  Bacteriological cure rate, Coagulase-negative staphylococci: 85.7%
  Bacteriological cure, No. cured, Coagulase-negative staphylococci: 6
E. coli [9]
  Bacteriological cure rate, E. coli: 80%
  Bacteriological cure, No. cured, E. coli: 8
Enterobacteriaceae
  Bacteriological cure rate, Enterobacteriaceae: 75%
  Bacteriological cure, No. cured, Enterobacteriaceae: 6
Staphylococcus aureus
  Bacteriological cure rate, Staphylococcus aureus: 80%
  Bacteriological cure, No. cured, Staphylococcus aureus: 4
Streptococcus uberis
  Bacteriological cure rate, Streptococcus uberis: 70%
  Bacteriological cure, No. cured, Streptococcus uberis: 7
